{"source": "patent US20220033397A1", "about": "“PHARMACEUTICAL COMPOUNDS AND THEIR USE AS INHIBITORS OF UBIQUITIN SPECIFIC PROTEASE 19 (USP19)” (ALMAC DISCOVERY LIMITED, priority 2018, published 2022)", "note": "pIC50: −log10 of the molar value.", "data": [{"target": "T1, Full-length USP19 (Homo sapiens, UniProt O94966)", "T1 construct": "Full-length USP19 was purchased from Boston Biochem (E-576); purchased Boston Biochem E-576", "T1 sequence (O94966 1-1318)": "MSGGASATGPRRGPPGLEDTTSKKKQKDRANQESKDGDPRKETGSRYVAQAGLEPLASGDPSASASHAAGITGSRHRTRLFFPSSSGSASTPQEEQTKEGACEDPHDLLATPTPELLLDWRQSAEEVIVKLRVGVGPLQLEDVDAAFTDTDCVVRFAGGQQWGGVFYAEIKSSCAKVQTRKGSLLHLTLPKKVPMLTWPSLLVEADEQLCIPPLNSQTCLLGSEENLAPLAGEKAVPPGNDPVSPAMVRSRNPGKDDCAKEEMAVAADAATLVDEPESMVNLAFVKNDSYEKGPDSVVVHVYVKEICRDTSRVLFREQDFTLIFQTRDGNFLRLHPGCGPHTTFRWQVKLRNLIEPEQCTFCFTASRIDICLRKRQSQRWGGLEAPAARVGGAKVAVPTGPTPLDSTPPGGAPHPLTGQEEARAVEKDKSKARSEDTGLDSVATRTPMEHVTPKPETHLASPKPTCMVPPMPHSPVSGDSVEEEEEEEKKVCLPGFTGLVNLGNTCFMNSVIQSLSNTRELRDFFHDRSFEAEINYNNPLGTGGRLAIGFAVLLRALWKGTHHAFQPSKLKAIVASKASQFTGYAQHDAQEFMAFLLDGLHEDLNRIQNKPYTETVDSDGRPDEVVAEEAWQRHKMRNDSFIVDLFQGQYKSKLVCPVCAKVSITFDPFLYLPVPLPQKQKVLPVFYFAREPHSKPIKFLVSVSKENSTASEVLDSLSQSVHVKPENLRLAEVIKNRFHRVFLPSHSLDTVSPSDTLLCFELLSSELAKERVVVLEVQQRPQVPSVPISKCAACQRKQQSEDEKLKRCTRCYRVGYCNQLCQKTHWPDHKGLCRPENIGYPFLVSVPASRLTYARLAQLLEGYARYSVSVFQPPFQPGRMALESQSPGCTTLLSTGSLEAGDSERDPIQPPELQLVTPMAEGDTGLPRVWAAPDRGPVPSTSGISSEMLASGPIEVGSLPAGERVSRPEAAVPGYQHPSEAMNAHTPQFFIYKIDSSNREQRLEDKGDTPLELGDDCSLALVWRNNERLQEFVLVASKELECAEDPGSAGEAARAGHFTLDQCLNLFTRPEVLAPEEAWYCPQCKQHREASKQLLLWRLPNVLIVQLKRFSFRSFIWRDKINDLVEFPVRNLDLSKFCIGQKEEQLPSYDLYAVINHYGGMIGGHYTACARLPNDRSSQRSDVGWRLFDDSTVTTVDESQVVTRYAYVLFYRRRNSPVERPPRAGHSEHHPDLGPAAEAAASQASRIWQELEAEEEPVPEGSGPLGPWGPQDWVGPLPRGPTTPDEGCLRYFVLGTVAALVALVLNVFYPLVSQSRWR", "assay": "USP19 fluorescence polarisation (FP) homogeneous assay with Ubiquitin-Lys-TAMRA substrate", "format": "biochemical", "details": "2.5 nM USP19, 30 min pre-incubation, average of at least two duplicate experiments", "procedure": "Unless otherwise stated, all other reagents were purchased from Sigma. Enzymatic reactions were conducted in black flat bottom polystyrene 384-well plates (Nunc) and 30 μL total volume. […] Inhibitors were stored as 10 mM DMSO stocks in an inert environment (low humidity, dark, low oxygen, room temperature) using the Storage Pod System and serial dilutions were prepared in buffer just prior to the assay (from 200 μM to 2 μM, 8-18 data point curve).\nFollowing incubation at RT for 30 min, the enzymatic reactions were initiated by dispensing the Ub substrate (500 nM, 10 μL). FP was measured every 15 min over a period of 90 min (within the linear range of the assay) using a Synergy 4 plate reader (BioTek) exciting at 530 nm and measuring the amount of parallel and perpendicular light at 575 nm. The FP signal was subsequently normalised to the no compound control.", "values": [{"smiles": "O=C(NCc1ccc(F)cc1F)N1CC[C@@](O)(Cn2cnc(-c3ccccc3)cc2=O)C2(CCCC2)C1", "note": "[Example 303, (S)—N-(2,4-Difluorobenzyl)-10-hydroxy-10-((6-oxo-4-phenylpyrimidin-1(6H)-yl)methyl)-7-azaspiro[4.5]decane-7-carboxamide]", "pIC50": "> 6.30"}, {"smiles": "C[C@H](CC(F)(F)F)C(=O)N1CCC(O)(Cn2ccc3nc(N4CCNCC4)ncc3c2=O)C2(CCCC2)C1", "note": "(stereo partly drawn) [Example 63, 6-((10-Hydroxy-7-((R)-4,4,4-trifluoro-2-methylbutanoyl)-7-azaspiro[4.5]decan-10-yl)methyl)-2-(piperazin-1-yl)pyrido[4,3-d]pyrimidin-5(6H)-one]", "pIC50": "5.30 to 6.30"}, {"smiles": "Cn1nccc1-c1cc(=O)n(C[C@]2(O)CCN(C(=O)N3CCOC[C@H]3c3ccc(F)cc3)CC23CCCC3)cn1", "note": "[Example 284, 3-(((S)-7-((R)-3-(4-Fluorophenyl)morpholine-4-carbonyl)-10-hydroxy-7-azaspiro[4.5]decan-10-yl)methyl)-6-(1-methyl-1H-pyrazol-5-yl)pyrimidin-4(3H)-one]", "pIC50": "> 6.30"}, {"smiles": "O=C(N1CC2CC2C1)N1CCC(O)(Cn2cnc(-c3ccccc3)cc2=O)C2(CCCC2)C1", "note": "(stereo not shown) [Example 209, 3-((7-(3-Azabicyclo[3.1.0]hexane-3-carbonyl)-10-hydroxy-7-azaspiro[4.5]decan-10-yl)methyl)-6-phenylpyrimidin-4(3H)-one]", "pIC50": "3.60 to 4.30"}, {"smiles": "O=C(N1CC[C@@](O)(Cn2cnc(N3CCC(F)CC3)cc2=O)C2(CCCC2)C1)N1CCNC[C@H]1c1ccccc1", "note": "[Example 361, 6-(4-Fluoropiperidin-1-yl)-3-(((S)-10-hydroxy-7-((R)-2-phenylpiperazine-1-carbonyl)-7-aza-spiro[4.5]decan-10-yl)methyl)pyrimidin-4(3H)-one]", "pIC50": "> 6.30"}, {"smiles": "Cn1cc(-c2ccn(C[C@]3(O)CCN(C(=O)N4CCNC[C@H]4c4ccccc4)CC34CCCC4)c(=O)c2)cn1", "note": "[Example 329, 1-(((S)-10-Hydroxy-7-((R)-2-phenylpiperazine-1-carbonyl)-7-azaspiro[4.5]decan-10-yl)methyl)-4-(1-methyl-1H-pyrazol-4-yl)pyridin-2(1H)-one]", "pIC50": "> 6.30"}, {"smiles": "O=C1CN(C(=O)c2ccccc2)CCN1CC1(O)CCN(C(=O)NCc2ccccc2)CC12CCCC2", "note": "(stereo not shown) [Example 107, 10-((4-Benzoyl-2-oxopiperazin-1-yl)methyl)-N-benzyl-10-hydroxy-7-azaspiro[4.5]decane-7-carboxamide]", "pIC50": "4.30 to 5.30"}, {"smiles": "O=C(N1CCC(O)(Cn2cc(F)c(-c3ccccc3)cc2=O)C2(CCCC2)C1)N1CCNC[C@H]1c1ccccc1", "note": "(stereo partly drawn) [Example 331, 5-Fluoro-1-((10-hydroxy-7-((R)-2-phenylpiperazine-1-carbonyl)-7-azaspiro[4.5]decan-10-yl)methyl)-4-phenylpyridin-2(1H)-one]", "pIC50": "> 6.30"}, {"smiles": "Cn1ccc(-c2cc(=O)n(C[C@]3(O)CCN(C(=O)N4CCNC[C@H]4c4ccccc4)CC34CCCC4)cn2)n1", "note": "[Example 371, 3-(((S)-10-Hydroxy-7-((R)-2-phenylpiperazine-1-carbonyl)-7-aza-spiro[4.5]decan-10-yl)methyl)-6-(1-methyl-1H-pyrazol-3-yl)pyrimidin-4(3H)-one]", "pIC50": "> 6.30"}, {"smiles": "C[C@H](CC1CCCCC1)C(=O)N1CCC(O)(CN2CCN(C)CC2=O)C2(CCCC2)C1", "note": "(stereo partly drawn) [Example 114, 1-((7-((R)-3-Cyclohexyl-2-methylpropanoyl)-10-hydroxy-7-azaspiro[4.5]decan-10-yl)methyl)-4-methylpiperazin-2-one]", "pIC50": "5.30 to 6.30"}, {"smiles": "O=C(N1CCC(C(F)(F)F)C1)N1CC[C@@](O)(Cn2cnc(-c3ccccc3)cc2=O)C2(CCCC2)C1", "note": "(stereo partly drawn) [Example 227, 3-(((10S)-10-Hydroxy-7-(3-(trifluoromethyl)pyrrolidine-1-carbonyl)-7-azaspiro[4.5]decan-10-yl)methyl)-6-phenylpyrimidin-4(3H)-one]", "pIC50": "5.30 to 6.30"}, {"smiles": "O=C(N1CC[C@@](O)(Cn2cnc(-c3ccsc3)cc2=O)C2(CCCC2)C1)N1CCNC[C@H]1c1ccccc1", "note": "[Example 344, 3-(((S)-10-Hydroxy-7-((R)-2-phenylpiperazine-1-carbonyl)-7-azaspiro[4.5]decan-10-yl)methyl)-6-(thio-phen-3-yl)pyrimidin-4(3H)-one]", "pIC50": "> 6.30"}, {"smiles": "O=C(NCC1(F)CCC1)N1CC[C@@](O)(Cn2cnc(-c3ccccc3)cc2=O)C2(CCCC2)C1", "note": "[Example 312, (S)—N-((1-Fluorocyclobutyl)methyl)-10-hydroxy-10-((6-oxo-4-phenylpyrimidin-1(6H)-yl)methyl)-7-azaspiro[4.5]decane-7-carboxamide]", "pIC50": "4.30 to 5.30"}, {"smiles": "COc1ccccc1-c1cc(=O)n(C[C@]2(O)CCN(C(=O)N3CCNC[C@H]3c3ccccc3)CC23CCCC3)cn1", "note": "[Example 317, 3-(((S)-10-Hydroxy-7-((R)-2-phenylpiperazine-1-carbonyl)-7-azaspiro[4.5]decan-10-yl)methyl)-6-(2-methoxyphenyl)pyrimidin-4(3H)-one]", "pIC50": "> 6.30"}, {"smiles": "COCC1CNCCN1C(=O)N1CCC(O)(Cn2cnc(-c3ccccc3)cc2=O)C2(CCCC2)C1", "note": "(stereo not shown) [Example 277, 3-((10-Hydroxy-7-(2-(methoxymethyl)piperazine-1-carbonyl)-7-azaspiro[4.5]decan-10-yl)methyl)-6-phenylpyrimidin-4(3H)-one]", "pIC50": "3.60 to 4.30"}, {"smiles": "C[C@H](CC1CCCCC1)C(=O)N1CCC(O)(Cn2ccc3nccnc3c2=O)C2(CCCC2)C1", "note": "(stereo partly drawn) [Example 150, 6-((7-((R)-3-Cyclohexyl-2-methylpropanoyl)-10-hydroxy-7-azaspiro[4.5]decan-10-yl)methyl)pyrido[3,4-b]pyrazin-5(6H)-one]", "pIC50": "3.60 to 4.30"}, {"smiles": "O=C(N[C@H](c1ccccc1)C(F)(F)F)N1CC[C@@](O)(Cn2cnc(-c3ccccc3)cc2=O)C2(CCCC2)C1", "note": "[Example 294, (S)-10-Hydroxy-10-((6-oxo-4-phenylpyrimidin-1(6H)-yl)methyl)-N—((R)-2,2,2-trifluoro-1-phenylethyl)-7-azaspiro[4.5]decane-7-carboxamide]", "pIC50": "> 6.30"}, {"smiles": "O=C(N1CC[C@@](O)(Cn2cnc(-c3ccc4c(c3)COC4)cc2=O)C2(CCCC2)C1)N1CCNC[C@H]1c1ccccc1", "note": "[Example 347, 6-(1,3-Dihydro-isobenzofuran-5-yl)-3-(((S)-10-hydroxy-7-((R)-2-phenylpiperazine-1-carbonyl)-7-aza-spiro[4.5]decan-10-yl)methyl)pyrimidin-4(3H)-one]", "pIC50": "> 6.30"}, {"smiles": "O=C(NCC(F)(F)F)N1CCC(O)(Cn2cnc(-c3ccccc3)cc2=O)C2(CCCC2)C1", "note": "(stereo not shown) [Example 196, 10-Hydroxy-10-((6-oxo-4-phenylpyrimidin-1(6H)-yl)methyl)-N-(2,2,2-trifluoroethyl)-7-azaspiro[4.5]decane-7-carboxamide]", "pIC50": "4.30 to 5.30"}, {"smiles": "O=C(N1CC[C@@](O)(Cn2cnc(-c3ccccc3)cc2=O)C2(CCCC2)C1)N1CCNC[C@H]1c1ccc(F)cc1", "note": "[Example 369, 3-(((S)-7-((R)-2-(4-Fluorophenyl)pipera-zine-1-carbonyl)-10-hydroxy-7-azaspiro[4.5]decan-10-yl)methyl)-6-phenylpyrimidin-4(3H)-one]", "pIC50": "> 6.30"}, {"smiles": "CCn1cc2c(=O)n(CC3(O)CCN(C(=O)[C@H](C)CC4CCCCC4)CC34CCCC4)cnc2n1", "note": "(stereo partly drawn) [Example 152, 5-((7-((R)-3-Cyclohexyl-2-methylpropanoyl)-10-hydroxy-7-azaspiro[4.5]decan-10-yl)methyl)-2-ethyl-2,5-dihydro-4H-pyrazolo[3,4-d]pyrimidin-4-one]", "pIC50": "3.60 to 4.30"}, {"smiles": "CN(C)c1cc(=O)n(C[C@]2(O)CCN(C(=O)N3CCNC[C@H]3c3ccccc3)CC23CCCC3)cn1", "note": "[Example 318, 6-(Dimethylamino)-3-(((S)-10-hydroxy-7-((R)-2-phenylpiperazine-1-carbonyl)-7-azaspiro[4.5]decan-10-yl)methyl)pyrimidin-4(3H)-one]", "pIC50": "> 6.30"}]}]}
